Like-named read-outs stand apart in the source and are kept apart here.
How the values were obtained:
[1] = cited from earlier work
[2] = set-up: method as in PMID 26686469; settings: after equilibration of the NO moiety amongst plasma thiols via S-transnitrosylation; cited from earlier work
[3] = set-up: species or system mice; settings: CD-1, mouse, in vivo
Description: A total of 48 mice were used (n = 3/group/time point) where the groups represented vehicle (0.9%saline) control, GSNO, SNOPC-2 and SNOPC-6 treatments (n = 3 per group), respectively. A time course study (0, 1, 5 and 15 min) was carried out to characterize the NOx biodistribution after i.n. administration of compounds. Prior to drug administration, mice were anaesthetized by inhaling 2% isoflurane in air via a nose cone. A single volume (20 μL) of test solution in saline (containing 1.25 mmol/L NO ≈ 1 μmol NO/kg body weight) or control (saline) solution was then administered drop wise into the nasal cavity using a micropipette after removing the mouse momentarily from the anaesthetic mask cone and holding it in an upright position. At the appropriate time point animals were exsanguinated by terminal bleed under anaesthesia. Blood and organ samples were collected and processed as described in section 2.4.
Prior to quantification, tissue samples were thawed, weighed and homogenized at 100 mg tissue/mL in phosphate buffered saline (PBS; pH 7.4) using a Silverson model L4RT laboratory homogenizer. Homogenates were centrifuged at 13,000 g for 20 min at 4 °C to remove tissue debris. Whole blood samples were fractionated into plasma (serum + platelets) and blood cells (red and white blood cells) by centrifugation at 1200 g. Cellular blood components were lysed with lysis buffer (5 mmol/L Na o-vanadate, 10 mg/mL benzamidine, 1 mmol/L phenylmethylsulfonyl fluoride (PMSF), 10 mmol/L Tris HCl, 5 mmol/L ethylenediamine tetraacetic acid (EDTA), 50 mmol/L NaCl pH 7.4 and 3.5 mmol/L SDS) at a volume ratio of 1:5 cells: lysis buffer. These samples were centrifuged at 13,000 g for 20 min at 4 °C. Protein content of each sample was quantified using the Bradford assay.
Quantification of total NOx was performed according to a method described by Verdon et al.. Briefly, samples were de-proteinated by mixing the sample with 0.3 mol/L NaOH and aqueous 0.27 mol/L ZnSO4 at a volume ratio of 1:1:2. NOx was determined in 50 μL de-proteinated sample in the form of nitrite using the colorimetric Griess method, [28]. The amount of nitrite in each sample was calculated from a linear calibration curve of known nitrite concentrations (linear range: 1–100 μmol/L) and normalized for total amount of protein (mg), quantified using the Bradford assay. The final concentration, expressed as μM nitrite/mg protein, represents the total NOx in the system. Any remaining nitrite in the infusate (drug solution administered) was not measured as we were more interested in in vivo changes in NOx levels in untreated versus different treated groups at different time points measured but we have previously characterized this.

[4] = CD-1, mouse, in vivo, iv
CD-1 mice = assay type: in vivo; settings: for Tmax (time at which the maximum response occurred): in vivo, iv
Description: In vivo blood pressure was monitored in anaesthetized animals as previously described. A total of 12 wild type male mice were used (n = 3/group) where the groups represented the vehicle (0.9% saline) control, GSNO, SNOPC-2 and SNOPC-6 treatments, respectively. Mean arterial pressure was recorded in anaesthetized mice (2% isoflurane in air) on a homeothermically controlled heating blanket (Harvard Instruments, Edenbridge, UK). A 1.2F microtip pressure catheter (Scisense, Transonic Systems, Ithaca, NY, USA) was inserted into the right carotid artery and basal arterial pressure was recorded for 5 min. Test drug solutions (50 μL containing 500 μmol/L NO ≈ 1 μmol NO/kg body weight) or control (saline) solution were directly injected into the jugular vein using a 30 gauge needle inserted through the underlying muscle. Arterial blood pressure was recorded continuously for a further 5 min following drug administration using a PowerLab data acquisition system and Chart 7 software (ADInstuments, Oxford, UK).

[5] = 10 μmol/L, human plasma and whole blood ex vivo
[6] = inhaled or intranasal, 1 umol/kg

Compound: S-nitrosated cysteine [CySNO]
- decomposition within the first 5 min [1, 5]: ~85%
- time to full decomposition [1, 5]: ≤ 15 min
- Half-life of decomposition ([1]; human): approximately 50 s
- half-life [2]: about 5 min

Compound: N[C@@H](CCC(=O)N[C@@H](CSN=O)C(=O)N[C@@H](CCC(=O)N[C@@H](CSN=O)C(=O)N[C@@H](CCC(=O)N[C@@H](CSN=O)C(=O)N[C@@H](CCC(=O)N[C@@H](CSN=O)C(=O)N[C@@H](CCC(=O)N[C@@H](CSN=O)C(=O)N[C@@H](CCC(=O)N[C@@H](CSN=O)C(=O)NCC(=O)O)C(=O)O)C(=O)O)C(=O)O)C(=O)O)C(=O)O)C(=O)O [SNOPC-6]
- NOx tmax Heart [3]: 5 min
- NOx tmax Liver [3]: 5 min
- NOx tmax Lung [3]: 1 min
- NOx tmax Plasma [3]: 5 min
- NOx tmax Heart [4]: 1 min
- NOx tmax Liver [4]: 5 min
- NOx tmax Lung [4]: 1 min
- NOx tmax Plasma [4]: 3 min
- Tmax (time at which the maximum response occurred) (CD-1 mice; male, CD-1, mouse): 0.083 min

Compound: N[C@@H](CCC(=O)N[C@@H](CSN=O)C(=O)NCC(=O)O)C(=O)O [GSNO, S-nitrosoglutathione]
- NOx tmax Heart [3, 6]: 5 min
- NOx tmax Liver [3, 6]: 5 min
- NOx tmax Lung [3, 6]: 1 min
- NOx tmax Plasma [3, 6]: 5 min
- NOx tmax Heart ([4]; 1 umol/kg): 3 min
- NOx tmax Liver ([4]; 1 umol/kg): 5 min
- NOx tmax Lung ([4]; 1 umol/kg): 1 min
- NOx tmax Plasma ([4]; 1 umol/kg): 1 min
- Half-life of decomposition [1, 5]: ~2 min
- decomposition within the first 5 min [1, 5]: ~85%
- time to full decomposition [1, 5]: ≤ 15 min
- reduction in blood pressure (CD-1 mice; i.v., 1 μmol NO/kg body weight, CD-1 mice, compared to saline): 30–35%
- Tmax (time at which the maximum response occurred) (CD-1 mice; mouse): 0.083 min
- half-life [2]: about 5 min

Compound: N[C@@H](CCC(=O)N[C@@H](CSN=O)C(=O)N[C@@H](CCC(=O)N[C@@H](CSN=O)C(=O)NCC(=O)O)C(=O)O)C(=O)O [SNOPC-2]
- NOx tmax Heart [3]: 5 min
- NOx tmax Liver [3]: 5 min
- NOx tmax Lung [3]: 1 min
- NOx tmax Plasma [3]: 5 min
- NOx tmax Heart [4]: 1 min
- NOx tmax Liver [4]: 3 min
- NOx tmax Lung [4]: 1 min
- NOx tmax Plasma [4]: 1 min
- Tmax (time at which the maximum response occurred) (CD-1 mice; male, CD-1, mouse): 0.083 min

Reference: paper PMC5045922, “In vivo pharmacological activity and biodistribution of S-nitrosophytochelatins after intravenous and intranasal administration in mice” (Nitric Oxide, 2016)
